Test results taken from the NIST ThermoML archive (doi:10.1021/acs.jced.5b00724).
Values joined by “and” are separate entries in the source; they are usually repeats but may differ in a detail not shown here. Equal values may be shown once. Numbers after ± are expanded uncertainties.

What was measured:
[1] = wn = mass fraction of the nth substance listed; details: 298.1 K, Liquid, Vibrating tube method
[2] = excess molar enthalpy (molar enthalpy of mixing); xn = mol fraction of the nth substance listed; details: 130 kPa, Liquid, Calvet calorimetry
[3] = 350.12 K; Liquid; Closed cell (Static) method
[4] = refractive index (Na D-line) (dimensionless); details: 298.15 K; 101.33 kPa; Liquid; Standard Abbe refractometry

CC1CCC(=O)O1 (stereo not drawn) [γ-valerolactone] + O
Details	excess molar enthalpy	mass density [kg/m3]
[1], 107 kPa, w2 = 0	–	1048.8 ± 0.8
[1], 107 kPa, w2 = 0.1004	–	1047 ± 0.8
[1], 107 kPa, w2 = 0.2005	–	1044.9 ± 0.8
[1], 107 kPa, w2 = 0.3025	–	1041.7 ± 0.8
[1], 107 kPa, w2 = 0.4	–	1037.6 ± 0.8
[1], 107 kPa, w2 = 0.5	–	1032.9 ± 0.8
[1], 107 kPa, w2 = 0.6	–	1027.1 ± 0.8
[1], 108 kPa, w2 = 0.6999	–	1021.1 ± 0.8
[1], 109 kPa, w2 = 0.7999	–	1013.8 ± 0.8
[1], 109 kPa, w2 = 0.8997	–	1005.5 ± 0.8
[2], 303.2 K, x2 = 0.097	0.124 ± 0.0129 kcal/mol	–
[2], 303.2 K, x2 = 0.203	0.197 ± 0.0208 kcal/mol	–
[2], 303.2 K, x2 = 0.303	0.222 ± 0.0225 kcal/mol	–
[2], 303.2 K, x2 = 0.4	0.217 ± 0.022 kcal/mol	–
[2], 303.2 K, x2 = 0.514	0.194 ± 0.0198 kcal/mol	–
[2], 303.2 K, x2 = 0.601	0.15 ± 0.0158 kcal/mol	–
[2], 303.2 K, x2 = 0.7	0.107 ± 0.011 kcal/mol	–
[2], 303.2 K, x2 = 0.801	0.0581 ± 0.00598 kcal/mol	–
[2], 303.2 K, x2 = 0.841	0.0387 ± 0.0043 kcal/mol	–
[2], 303.2 K, x2 = 0.894	0.0127 ± 0.00167 kcal/mol	–
[2], 303.2 K, x2 = 0.9	0.0103 ± 0.00215 kcal/mol	–
[2], 303.2 K, x2 = 0.914	0.00308 kcal/mol and 0.00239 kcal/mol	–
[2], 303.2 K, x2 = 0.93	-0.00437 ± 0.000956 kcal/mol	–
[2], 303.2 K, x2 = 0.946	-0.0098 ± 0.0012 kcal/mol	–
[2], 303.2 K, x2 = 0.9815	-0.0182 ± 0.00191 kcal/mol	–
[2], 303.2 K, x2 = 0.9906	-0.0103 ± 0.0012 kcal/mol	–
[2], 303.2 K, x2 = 0.9962	-0.00416 ± 0.000837 kcal/mol	–
[2], 303.2 K, x2 = 0.9981	-0.0021 ± 0.000741 kcal/mol	–
[2], 322.6 K, x2 = 0.204	0.207 ± 0.0055 kcal/mol	–
[2], 322.6 K, x2 = 0.401	0.249 ± 0.00645 kcal/mol	–
[2], 322.6 K, x2 = 0.503	0.232 ± 0.00621 kcal/mol	–
[2], 322.6 K, x2 = 0.602	0.197 kcal/mol	–
[2], 322.6 K, x2 = 0.7	0.152 ± 0.00454 kcal/mol	–
[2], 322.6 K, x2 = 0.801	0.097 ± 0.00335 kcal/mol	–
[2], 322.6 K, x2 = 0.9	0.0402 ± 0.00263 kcal/mol	–
[2], 322.6 K, x2 = 0.95	0.0116 ± 0.00234 kcal/mol	–

O [water]
Details	refractive index	vapor or sublimation pressure [kPa]
[3]	–	41.9 ± 0.2
[4]	1.3325 ± 0.0008	–
